Experimental data from patent US12247015B2, “3-amino-4H-benzo[e][1,2,4]thiadiazine 1,1-dioxide derivatives as inhibitors of MRGX2” (Solent Therapeutics, LLC, priority 2019, dated 2025).

Biological target: hMRGX2 (CHO-K1 cells overexpressing MRGX2) (Homo sapiens (Human), UniProt Q96LB1)
Experiment: In vitro inhibition (EC50) of intracellular calcium flux, FLIPR Tetra, substance P stimulation
Assay type: cell-based
Settings: stimulated with MRGX2 ligand substance P, FLIPR Calcium 5, read-out: hMRGX2 Cellular Potency (pEC50) (converted)
Procedure: In Vitro Inhibition (EC50) of Intracellular Calcium Flux
The release of intracellular calcium following stimulation of cells with substance P in the presence or absence of inhibitor compounds was measured using the FLIPR Tetra® system. CHO-K1 cells overexpressing MRGX2 were seeded into 384-well plates (Black clear bottom, TC-treated, Fisher #07-200-655) and incubated overnight to allow for cell attachment. Media was removed, and 1× loading buffer (FLIPR® Calcium 5 assay solution, Molecular Devices, per manufacturer specifications) was added. The plates were incubated at 37° C. for 30 minutes. Test compounds were added to cells (11-point dose response, 10 µM maximum concentration) and fluorescence measured (120 seconds, in real time) using the FLIPR Tetra® system. Immediately following, MRGX2 ligand substance P was added at a final concentration of 1 µM and fluorescence measured (120 seconds, in real time) using the FLIPR Tetra® system. The data for the examples are reported as pEC50.

hMRGX2 (CHO-K1 cells overexpressing MRGX2), sequence (Q96LB1 whole entry): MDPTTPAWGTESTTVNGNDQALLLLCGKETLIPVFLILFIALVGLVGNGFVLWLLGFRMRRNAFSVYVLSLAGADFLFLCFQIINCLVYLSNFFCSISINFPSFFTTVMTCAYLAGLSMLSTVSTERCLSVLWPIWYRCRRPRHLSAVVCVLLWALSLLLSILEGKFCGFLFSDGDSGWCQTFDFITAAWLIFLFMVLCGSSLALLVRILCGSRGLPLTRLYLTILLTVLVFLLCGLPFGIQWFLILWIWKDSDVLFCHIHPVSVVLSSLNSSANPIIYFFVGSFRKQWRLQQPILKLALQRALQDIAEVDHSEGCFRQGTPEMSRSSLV

| Structure (SMILES) | EC50 [nM] |
| --- | --- |
| O=S1(=O)N=C(NCc2ncco2)Nc2c(-c3ccnc(F)c3Cl)cccc21 [Example 48, 5-(3-chloro-2-fluoropyridin-4-yl)-3-((oxazol-2-ylmethyl)amino)-4H-benzo[e][1,2,4]thiadiazine 1,1-dioxide] | 36 |
| CCOC(C)CNC1=NS(=O)(=O)c2cccc(-c3cccc(F)c3Cl)c2N1 (centres unmarked) [Example 58, 5-(2-chloro-3-fluorophenyl)-3-((2-ethoxypropyl)amino)-4H-benzo[e][1,2,4]thiadiazine 1,1-dioxide] | 179 |
| Cn1cccc(CNC2=NS(=O)(=O)c3cccc(-c4cccc(F)c4F)c3N2)c1=O [Example 20, 3-(((5-(2,3-difluorophenyl)-1,1-dioxido-4H-benzo[e][1,2,4]thiadiazin-3-yl)amino)methyl)-1-methylpyridin-2(1H)-one] | 857 |
| CNC1=NS(=O)(=O)c2cc(F)cc(-c3ccccc3Cl)c2N1 [Example 13, 5-(2-chlorophenyl)-7-fluoro-3-(methylamino)-4H-benzo[e][1,2,4]thiadiazine 1,1-dioxide] | 35.5 |
| O=S1(=O)N=C(NCCF)Nc2c(-c3cccc(F)c3F)cccc21 [Example 21, 5-(2,3-difluorophenyl)-3-((2-fluoroethyl)amino)-4H-benzo[e][1,2,4]thiadiazine 1,1-dioxide] | 738 |
| CC(NC1=NS(=O)(=O)c2cc(F)cc(-c3cccc(F)c3Cl)c2N1)c1nccs1 (centres unmarked) [Example 8, 5-(2-chloro-3-fluorophenyl)-7-fluoro-3-((1-(thiazol-2-yl)ethyl)amino)-4H-benzo[e][1,2,4]thiadiazine 1,1-dioxide] | 110 |
| O=S1(=O)N=C(NCC(F)F)Nc2c(-c3cccc(F)c3Cl)cc(F)cc21 [Example 10, 5-(2-chloro-3-fluorophenyl)-3-((2,2-difluoroethyl)amino)-7-fluoro-4H-benzo[e][1,2,4]thiadiazine 1,1-dioxide] | 39.3 |
| COCCNC1=NS(=O)(=O)c2cccc(-c3cc(F)cc(F)c3Cl)c2N1 [Example 32, 5-(2-chloro-3,5-difluorophenyl)-3-((2-methoxyethyl)amino)-4H-benzo[e][1,2,4]thiadiazine 1,1-dioxide] | 35.7 |
| O=S1(=O)N=C(NCC2CCC2)Nc2c(-c3cccc(F)c3Cl)cccc21 [Example 17, 5-(2-chloro-3-fluorophenyl)-3-((cyclobutylmethyl)amino)-4H-benzo[e][1,2,4]thiadiazine 1,1-dioxide] | 20.7 |
| Cc1nn(C)cc1-c1cccc2c1NC(NCc1ccc(Cl)cn1)=NS2(=O)=O [Example 59, 3-(((5-chloropyridin-2-yl)methyl)amino)-5-(1,3-dimethyl-1H-pyrazol-4-yl)-4H-benzo[e][1,2,4]thiadiazine 1,1-dioxide] | 248 |
| COC(C)CNC1=NS(=O)(=O)c2cccc(-c3cccc(F)c3Cl)c2N1 (centres unmarked) [Example 33, 5-(2-chloro-3-fluorophenyl)-3-((2-methoxypropyl)amino)-4H-benzo[e][1,2,4]thiadiazine 1,1-dioxide] | 38.2 |
| CNC1=NS(=O)(=O)c2cccc(-c3ccnc(F)c3Cl)c2N1 [Example 56, 5-(3-chloro-2-fluoropyridin-4-yl)-3-(methylamino)-4H-benzo[e][1,2,4]thiadiazine 1,1-dioxide] | 282 |
| Cc1cnc(CNC2=NS(=O)(=O)c3cccc(-c4cccc(F)c4Cl)c3N2)o1 [Example 38, 5-(2-chloro-3-fluorophenyl)-3-(((5-methyloxazol-2-yl)methyl)amino)-4H-benzo[e][1,2,4]thiadiazine 1,1-dioxide] | 51.9 |
| COc1cccc(CNC2=NS(=O)(=O)c3cccc(-c4cccc(F)c4Cl)c3N2)n1 [Example 18, 5-(2-chloro-3-fluorophenyl)-3-(((6-methoxypyridin-2-yl)methyl)amino)-4H-benzo[e][1,2,4]thiadiazine 1,1-dioxide] | 21.3 |
| CN(C)C(=O)CNC1=NS(=O)(=O)c2cccc(-c3cccc(F)c3Cl)c2N1 [Example 62, 2-((5-(2-chloro-3-fluorophenyl)-1,1-dioxido-4H-benzol[e][1,2,4]thiadiazin-3-yl)amino)-N,N-dimethylacetamide] | 279 |
| COCCNC1=NS(=O)(=O)c2cccc(-c3ccnc(F)c3Cl)c2N1 [Example 36, 5-(3-chloro-2-fluoropyridin-4-yl)-3-((2-methoxyethyl)amino)-4H-benzo[e][1,2,4]thiadiazine 1,1-dioxide] | 50.4 |
| Cc1nn(C)cc1-c1cccc2c1NC(NCC1CCC1)=NS2(=O)=O [Example 61, 3-((cyclobutylmethyl)amino)-5-(1,3-dimethyl-1H-pyrazol-4-yl)-4H-benzo[e][1,2,4]thiadiazine 1,1-dioxide] | 430 |
| O=S1(=O)N=C(NCc2ccc(F)cc2)Nc2c(-c3ccnc(F)c3Cl)cccc21 [Example 54, 5-(3-chloro-2-fluoropyridin-4-yl)-3-((4-fluorobenzyl)amino)-4H-benzo[e][1,2,4]thiadiazine 1,1-dioxide] | 13.2 |

Now from value to compound:

| EC50 [nM] | Structure (SMILES) |
| --- | --- |
| 223 | O=S1(=O)N=C(NCCCF)Nc2c(-c3cccc(F)c3Cl)cccc21 [Example 152, 5-(2-chloro-3-fluorophenyl)-3-((3-fluoropropyl)amino)-4H-benzo[e][1,2,4]thiadiazine 1,1-dioxide] |
| 224 | O=S1(=O)N=C(NCc2c(F)cccc2F)Nc2c(-c3cc(F)cc(F)c3)cccc21 [Example 78, 3-((2,6-difluorobenzyl)amino)-5-(3,5-difluorophenyl)-4H-benzo[e][1,2,4]thiadiazine 1,1-dioxide] |
| 470 | COCCNC1=NS(=O)(=O)c2cccc(-c3cc(F)cc(F)c3F)c2N1 [Example 168, 3-((2-methoxyethyl)amino)-5-(2,3,5-trifluorophenyl)-4H-benzo[e][1,2,4]thiadiazine 1,1-dioxide] |
| 89.1 | CC(C)c1ccc(NC2=NS(=O)(=O)c3cccc(-c4cnn(C5CC(F)(F)C5)c4)c3N2)cc1 [Example 104, 5-(1-(3,3-difluorocyclobutyl)-1H-pyrazol-4-yl)-3-((4-isopropylphenyl)amino)-4H-benzo[e][1,2,4]thiadiazine 1,1-dioxide] |
| 216 | COCCNC1=NS(=O)(=O)c2cccc(-c3cc(F)ccc3Cl)c2N1 [Example 144, 5-(2-chloro-5-fluorophenyl)-3-((2-methoxyethyl)amino)-4H-benzo[e][1,2,4]thiadiazine 1,1-dioxide] |
| 60.8 | O=S1(=O)N=C(NCC2CCCO2)Nc2c(-c3cccc(F)c3Cl)cccc21 (centres unmarked) [Example 123, 5-(2-chloro-3-fluorophenyl)-3-(((tetrahydrofuran-2-yl)methyl)amino)-4H-benzo[e][1,2,4]thiadiazine 1,1-dioxide] |
| 180 | CCc1ccccc1-c1cccc2c1NC(NCCOC)=NS2(=O)=O [Example 163, 5-(2-ethylphenyl)-3-((2-methoxyethyl)amino)-4H-benzo[e][1,2,4]thiadiazine 1,1-dioxide] |
| 320 | N#Cc1c(F)cccc1-c1cccc2c1NC(NCCF)=NS2(=O)=O [Example 149, 2-fluoro-6-(3-((2-fluoroethyl)amino)-1,1-dioxido-4H-benzo[e][1,2,4]thiadiazin-5-yl)benzonitrile] |
| 87.9 | O=S1(=O)N=C(NCC2CCC2)Nc2c(-c3cc(F)cc(F)c3F)cccc21 [Example 130, 3-((cyclobutylmethyl)amino)-5-(2,3,5-trifluorophenyl)-4H-benzo[e][1,2,4]thiadiazine 1,1-dioxide] |
| 1010 | O=S1(=O)N=C(NCc2ccncc2)Nc2c(-c3cc(F)cc(F)c3)cccc21 [Example 82, 5-(3,5-difluorophenyl)-3-((pyridin-4-ylmethyl)amino)-4H-benzo[e][1,2,4]thiadiazine 1,1-dioxide] |
| 82.8 | COc1ccccc1CCNC1=NS(=O)(=O)c2cccc(-c3cccc(F)c3Cl)c2N1 [Example 71, 5-(2-chloro-3-fluorophenyl)-3-((2-methoxyphenethyl)amino)-4H-benzo[e][1,2,4]thiadiazine 1,1-dioxide] |
| 93.3 | O=S1(=O)N=C(NCCOCC(F)F)Nc2c(-c3cccc(F)c3Cl)cccc21 [Example 160, 5-(2-chloro-3-fluorophenyl)-3-((2-(2,2-difluoroethoxy)ethyl)amino)-4H-benzo[e][1,2,4]thiadiazine 1,1-dioxide] |
| 235 | CNC1=NS(=O)(=O)c2cccc(-c3ccc(F)cc3Cl)c2N1 [Example 94, 5-(2-chloro-4-fluorophenyl)-3-(methylamino)-4H-benzo[e][1,2,4]thiadiazine 1,1-dioxide] |
| 244 | COC(C)CNC1=NS(=O)(=O)c2cccc(-c3cc(F)ccc3F)c2N1 (centres unmarked) [Example 142, 5-(2,5-difluorophenyl)-3-((2-methoxypropyl)amino)-4H-benzo[e][1,2,4]thiadiazine 1,1-dioxide] |
| 233 | Cc1cnccc1-c1cccc2c1NC(Nc1ccc(C(C)C)cc1)=NS2(=O)=O [Example 113, 3-((4-isopropylphenyl)amino)-5-(3-methylpyridin-4-yl)-4H-benzo[e][1,2,4]thiadiazine 1,1-dioxide] |
| 34.8 | O=S1(=O)N=C(NCc2cc(F)ccc2F)Nc2c(-c3cc(F)cc(F)c3)cccc21 [Example 76, 3-((2,5-difluorobenzyl)amino)-5-(3,5-difluorophenyl)-4H-benzo[e][1,2,4]thiadiazine 1,1-dioxide] |
| 378 | CC(C)c1ccc(NC2=NS(=O)(=O)c3cccc(C4CC4)c3N2)cn1 [Example 118, 5-cyclopropyl-3-((6-isopropylpyridin-3-yl)amino)-4H-benzo[e][1,2,4]thiadiazine 1,1-dioxide] |
